In article PMC10292217, “Gene-nutrient interactions that impact magnesium homeostasis increase risk for neural tube defects in mice exposed to dolutegravir” (Frontiers in Cell and Developmental Biology, 2023):
Marks after values point to notes of the source that are not given here.

Columns and labels:
[1] = system: LM/Bc mice; assay: DTG-NTD susceptibility, embryo phenotyping on GD 9.5, LM/Bc dams; type: in vivo, mouse
Text: Breeding colonies and experimental mice were housed in Thoren micro-isolator cages with autoclaved corncob bedding and maintained on a 12-h light-dark cycle in climate-controlled AAALAC-accredited animal facilities at Creighton University. Mice were given ad libitum access to autoclaved water and pelleted irradiated rodent chow. For timed matings, nulliparous female mice were placed with a male overnight (1 male:2-3 females). The presence of a vaginal plug the next morning was considered GD 0.5. Plugged females were weighed, placed into a separate cage, and randomly assigned to a treatment group. All animal procedures were performed in accordance with the Public Health Service (PHS) policy on Humane Care and Use of Laboratory Animals and approved by the Creighton University Institutional Animal Care and Use Committee (IACUC).
Dolutegravir (CAS 1051375-16-6, GSK1349572) was purchased from MedKoo Biosciences (Morrisville, NC). Pregnant mice were dosed with vehicle (dimethylsulfoxide: Solutol®: 50 mM N-methylglucamine in 3% mannitol [1:1:8, v:w:v]) ([Moss et al., 2015]) or DTG (500 mg/kg or 750 mg/kg) by daily oral gavage beginning on GD 0.5 and continuing until the day of sacrifice (GD 9.5). All treatments were administered in a volume of 0.1 mL/10 g bodyweight (bwt).
The SWV and LM/Bc breeding colonies have been maintained on Envigo Rodent Chow #8904 (a soy protein-based irradiated diet) for >20 years. C3H/HeJ and C57BL/6J mice (6–10 weeks old) were immediately placed on Envigo #8904 upon arrival at Creighton University and were maintained on this diet for a minimum of 1 month prior to analysis of basal plasma and urine cations. The National Research Council (NRC) estimate for the minimum Mg^2+ requirement in adult mice is […] of diet (0.05%). Magnesium in standard rodent diets ranges between […]; the Envigo #8904 soy diet contains .3% Mg^2+ by weight ([…] the NRC requirement) and was therefore considered a ‘high’ Mg^2+ diet. Sources of Mg^2+ in the soy diet include magnesium oxide (∼20%) and Mg^2+ found naturally in grain ingredients (∼80%); it was therefore not possible to remove Mg^2+ to create a soy-based version that was Mg^2+ deficient. To test the hypothesis that low maternal plasma Mg^2+ prior to conception would increase susceptibility to DTG-induced NTDs, it was necessary to switch to casein-based purified ingredient diets with defined levels of Mg^2+ added back. The following casein-based purified ingredient diets were selected as experimental diets: TD.120,574 high Mg^2+ diet (.3% Mg^2+ oxide added to match the .3% high Mg^2+ soy-based diet); TD.98341 control Mg^2+ diet with 0.05% Mg oxide added back to match the NRC requirement; and TD.93106 Mg^2+-deficient diet (<.003%, no Mg^2+ added back). The purified casein diets met or exceeded the NRC requirements for all other minerals and vitamins, including folic acid (Supplementary Table S1: Diet Comparison). Thus, the 4 experimental diets were as follows: 1) high Mg^2+ (.3%) soy diet; 2) high Mg^2+ ([…]) casein diet; 3) control Mg^2+ (.05%) casein diet; and 4) deficient Mg^2+ (<.003%) casein diet. […] Our initial DTG teratology studies were performed in mice on the high Mg^2+ soy diet. However, our objective in the second set of experiments was to reduce pre-conception plasma Mg^2+ levels prior to DTG exposure. To accomplish this objective, weaned female mice were placed on either the high Mg^2+ casein diet or one of the 2 casein-based experimental diets with reduced Mg^2+ (control or deficient) for a minimum of 2 weeks. After this minimum period of acclimation to the experimental casein-based diets, blood and urine samples were collected for Inductively Coupled Plasma Mass Spectrometry (ICP-MS) determination of Mg^2+ (and other cations).
Pregnant dams were anesthetized with isoflurane and sacrificed by cervical dislocation on GD 9.5. […]

[2] = system: C57BL/6J mice; design: method as in Mohan et al., 2021; conditions: ref Mohan et al., 2021, cited from earlier work
[3] = ref Zash et al., cited from earlier work
[4] = system: human embryonic stem cell (hESC) lines; design: method as in Smith et al., 2022; conditions: 2 different hESC lines; ref Smith et al., 2022; cited from earlier work
[5] = system: FOLR1; design: method as in Gilmore et al., 2022; conditions: human choriocarcinoma cells; ref Gilmore et al., 2022; cited from earlier work
[6] = control Mg2+ (0.05%) casein diet, DTG500
[7] = control Mg2+ (0.05%) casein diet, DTG750
[8] = high Mg2+ (0.3%) casein diet, DTG750
[9] = high Mg2+ (0.3%) soy diet, DTG 750 mg/kg/d oral GD 0.5-GD 9.5, average % (SD)
[10] = high Mg2+ (0.3%) soy diet, DTG 750 mg/kg/d oral GD 0.5-GD 9.5, mean (SD)
[11] = high Mg2+ (0.3%) soy diet, DTG 750 mg/kg/d oral GD 0.5-GD 9.5, mean (SD) per litter
[12] = high Mg2+ soy diet, DTG500, n = 7 litters

Question: For C[C@@H]1CCO[C@H]2Cn3cc(C(=O)NCc4ccc(F)cc4F)c(=O)c(O)c3C(=O)N12 [DTG, Dolutegravir], which NTD-affected litters [1, 6] is on record?
Answer: 62%

Question: And the “NTD-affected litters / litters examined” value [1, 6]?
Answer: 8/13

Question: And the “exencephalic embryos per litter” value [1, 6]?
Answer: 1 to 5

Question: And the “total NTDs” value ([1]; control Mg2+ (0.05%) casein diet, DTG500, of 116 implants)?
Answer: 19

Question: What about the NTD-affected litters [1, 7] of the same compound?
Answer: 85%

Question: And the “NTD-affected litters / litters examined” value [1, 7]?
Answer: 11/13

Question: What about the “exencephalic embryos per litter” value [1, 7] of the same compound?
Answer: 1 to 6

Question: What about the “total NTDs” value ([1]; control Mg2+ (0.05%) casein diet, DTG750, of 105 implants) of the same compound?
Answer: 33

Question: What about the NTD-affected litters [1, 8] of the same compound?
Answer: 19%

Question: And the “exencephalic embryos per affected litter” value [1, 8]?
Answer: 1

Question: What about the “mean rate NTDs/litter” value [1, 8] of the same compound?
Answer: 2%

Question: And the “NTD-affected litters / litters examined” value ([1]; high Mg2+ (0.3%) casein diet, DTG750, 90 implants total)?
Answer: 3/16

Question: What about the “Dev delay/implants, index value” [1, 9] of the same compound?
Answer: 8.1% (17.76)

Question: And the “NTDs/embryos, index value” [1, 9]?
Answer: 20.9% (23.65)^**

Question: What about the “NTDs/implants, index value” [1, 9] of the same compound?
Answer: 17.7% (20.63)^**

Question: And the “Resorptions/implants, index value” [1, 9]?
Answer: 11.5% (15.75)

Question: And the Implants per litter [1, 10]?
Answer: 8.74 (2.47)

Question: And the Resorptions per litter [1, 10]?
Answer: 0.95 (1.27)

Question: And the Dev. delayed [1, 11]?
Answer: 0.58 (0.96)

Question: What about the NTDs [1, 11] of the same compound?
Answer: 1.47 (1.74)^**

Question: What about the Total viable embryos [1, 11] of the same compound?
Answer: 7.79 (2.76)

Question: What about the NTDs observed ([1]; high Mg2+ soy diet, DTG 500 mg/kg/d (DTG500), n = 7 litters) of the same compound?
Answer: No NTDs

Question: And the developmental delays [1, 12]?
Answer: no developmental delays

Question: What about the “implants (total)” value [1, 12] of the same compound?
Answer: 71

Question: And the “resorptions (total)” value [1, 12]?
Answer: 9

Question: What about the “viable embryos developmentally normal (total)” value [1, 12] of the same compound?
Answer: 62

Question: What about the “NTD-affected litters / litters examined” value ([1]; high Mg2+ soy diet, DTG750) of the same compound?
Answer: 12/19

Question: What about the NTDs/affected litter ([1]; high Mg2+ soy diet, DTG750) of the same compound?
Answer: 1–6

Question: What about the “total pups with exencephaly” value ([1]; high Mg2+ soy diet, DTG750, out of 166 total implants) of the same compound?
Answer: 28

Question: And the NTD-affected litters ([2]; 2.5 mg/kg/d oral DTG co-formulated with TDF and FTC from GD 0.5, folate-sufficient diet, 5/150 litters)?
Answer: 3.3%

Question: And the NTDs observed ([2]; 5x higher dose, n = 111 litters)?
Answer: no NTDs were observed

Question: And the NTD prevalence ([3]; 4/426 infants exposed to DTG from conception, 2018)?
Answer: .94%

Question: What about the “prevalence of DTG-NTDs” value ([3]; follow-up study, 5/1683 deliveries, 2019) of the same compound?
Answer: .30%

Question: And the “increase in the prevalence of NTDs” value ([3]; women who began DTG prior to conception, 2018)?
Answer: 9 fold

Question: And the “effect on hESC” value [4]?
Answer: cytotoxicity and a dose-dependent loss of pluripotency

Question: What about the FOLR1-mediated uptake [5] of the same compound?
Answer: reduced
